From ChEMBL document CHEMBL1221260, “Discovery of cannabinoid-1 receptor antagonists by virtual screening” (Bioorg Med Chem Lett, 2010)
pIC50: −log10 of the molar value. Values belong to the compound of their own block, whether it stands above or below them.

Tests used:
Cannabinoid receptor 1 = Cannabinoid receptor 1 (Homo sapiens, UniProt P21554); assay: Inhibition of human CB1 receptor expressed in CHOK1 cells by luciferase reporter gene assay; format: cell-based, CHO-K1; settings: for inhibition: CHO-K1, concentration not given here
Sequence of Cannabinoid receptor 1 (P21554 whole entry): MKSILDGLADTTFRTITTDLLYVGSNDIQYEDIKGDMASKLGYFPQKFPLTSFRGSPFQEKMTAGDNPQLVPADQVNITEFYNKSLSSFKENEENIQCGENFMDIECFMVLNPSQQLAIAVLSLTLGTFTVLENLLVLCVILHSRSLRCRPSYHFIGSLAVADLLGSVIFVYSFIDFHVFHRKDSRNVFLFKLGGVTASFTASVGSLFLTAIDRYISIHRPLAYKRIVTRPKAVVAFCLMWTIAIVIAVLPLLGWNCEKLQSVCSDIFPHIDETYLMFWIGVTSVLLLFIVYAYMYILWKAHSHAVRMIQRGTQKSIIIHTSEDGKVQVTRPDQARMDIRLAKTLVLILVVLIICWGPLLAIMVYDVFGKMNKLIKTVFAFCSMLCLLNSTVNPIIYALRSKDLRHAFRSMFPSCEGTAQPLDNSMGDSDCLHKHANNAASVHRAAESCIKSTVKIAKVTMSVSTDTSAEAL

[1] = Stability in rat plasma for 30 mins; format: ADME, cell-free; settings: read-out: Stability
Liver microsomes [2] = assay: Metabolic stability in rat liver microsomes; format: ADME, Microsome
Homo sapiens [3] = organism: Homo sapiens; assay: Stability in human plasma for 30 mins
[4] = Plasma protein binding in rat; format: ADME, cell-free; settings: read-out: PPB (converted)
Liver microsomes [5] = assay: Metabolic stability in human liver microsomes; format: ADME, Microsome
Homo sapiens [6] = organism: Homo sapiens; assay: Plasma protein binding in human; settings: read-out: PPB (converted)

pIC50 (Cannabinoid receptor 1): 6.54
Compound: C=C(C)Cn1c(SCC(=O)OC)nc2sc3c(c2c1=O)CC(C)(C)OC3

inhibition (Cannabinoid receptor 1): 102%
Compound: COC(=O)c1cc(S(=O)(=O)N2CCn3c2nc2ccccc23)c[nH]1

inhibition (Cannabinoid receptor 1): 63%
Compound: O=C(NC[C@@H]1CCCO1)c1nc(-c2ccc(Cl)cc2)n2c1CCCCC2

remaining at 0.5 h [1]: > 99%
Stability (Liver microsomes [2]): 96.1%
remaining at 0.5 h (Homo sapiens [3]): > 99%
fraction unbound [4]: 0.034
Stability (Liver microsomes [5]): 87%
fraction unbound (Homo sapiens [6]): 0.058
pIC50 (Cannabinoid receptor 1): 6.90
Compound: O=C1N=C(Nc2cccc(C(F)(F)F)c2)S/C1=C\c1cccnc1

inhibition (Cannabinoid receptor 1): 90%
Compound: Cc1ccc(-n2nc3c(c2NC(=O)c2ccco2)CS(=O)(=O)C3)c(C)c1

inhibition (Cannabinoid receptor 1): 83%
Compound: COC(=O)c1ccc([C@@H]2CC(=O)N3C(=C2C#N)SC[C@]3(O)c2ccc(C)cc2)cc1

inhibition (Cannabinoid receptor 1): 94%
Compound: CCOC(=O)c1c(NC(=O)Cc2ccccc2)sc2c1CCN(C(=O)OCC)C2
